Consider 18 molecules from US10245264B2, “Substituted imidazo[1,2-a]pyrazines as soluble guanylate cyclase activators” (Merck Sharp & Dohme Corp., priority 2015, dated 2019).

The structures appear in SMILES notation.

This test addresses T1, sGC α1/β1 heterodimer stably expressed in CHO-K1 cells (CHO-K1/sGC) (Homo sapiens, UniProt Q02108+Q02153).
T1 construct: expressed in transfected cells
T1 sequence (Q02108 1-690): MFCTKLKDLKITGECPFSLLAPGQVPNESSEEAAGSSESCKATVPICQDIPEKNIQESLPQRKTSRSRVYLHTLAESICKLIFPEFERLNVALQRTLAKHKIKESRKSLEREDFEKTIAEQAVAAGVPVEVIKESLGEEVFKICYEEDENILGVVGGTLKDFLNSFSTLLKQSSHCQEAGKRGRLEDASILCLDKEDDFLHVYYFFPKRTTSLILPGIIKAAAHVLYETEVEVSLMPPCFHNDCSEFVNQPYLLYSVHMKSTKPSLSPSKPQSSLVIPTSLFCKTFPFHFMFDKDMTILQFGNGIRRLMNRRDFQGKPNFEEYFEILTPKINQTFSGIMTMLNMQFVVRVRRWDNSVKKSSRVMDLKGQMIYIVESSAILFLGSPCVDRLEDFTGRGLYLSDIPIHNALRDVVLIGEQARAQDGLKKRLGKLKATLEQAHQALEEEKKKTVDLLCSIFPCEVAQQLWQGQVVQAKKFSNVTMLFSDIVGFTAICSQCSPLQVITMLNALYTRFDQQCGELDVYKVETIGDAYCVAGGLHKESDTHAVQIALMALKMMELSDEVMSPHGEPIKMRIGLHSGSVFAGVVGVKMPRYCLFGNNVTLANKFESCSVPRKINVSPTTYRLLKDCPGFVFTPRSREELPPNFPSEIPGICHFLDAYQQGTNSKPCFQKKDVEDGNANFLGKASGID
T1 sequence (Q02153 1-619): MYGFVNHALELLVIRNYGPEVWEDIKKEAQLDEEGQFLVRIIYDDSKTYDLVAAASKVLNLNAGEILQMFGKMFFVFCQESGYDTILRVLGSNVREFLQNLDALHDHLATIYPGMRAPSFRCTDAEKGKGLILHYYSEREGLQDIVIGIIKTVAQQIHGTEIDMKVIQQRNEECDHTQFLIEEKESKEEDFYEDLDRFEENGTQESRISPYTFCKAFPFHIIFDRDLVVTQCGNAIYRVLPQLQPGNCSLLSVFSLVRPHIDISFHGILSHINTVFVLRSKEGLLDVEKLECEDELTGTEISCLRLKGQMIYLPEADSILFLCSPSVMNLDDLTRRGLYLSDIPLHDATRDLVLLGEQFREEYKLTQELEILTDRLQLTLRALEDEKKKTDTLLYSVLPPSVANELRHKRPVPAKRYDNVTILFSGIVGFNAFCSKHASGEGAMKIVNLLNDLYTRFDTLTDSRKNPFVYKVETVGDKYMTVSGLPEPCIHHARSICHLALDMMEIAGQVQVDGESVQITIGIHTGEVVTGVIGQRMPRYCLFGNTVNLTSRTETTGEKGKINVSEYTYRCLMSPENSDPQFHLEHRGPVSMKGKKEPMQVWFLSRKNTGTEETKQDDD
Briefly: Cell-based sGC functional assay (CASA assay), cGMP generation by HTRF. To be noted: for Emax: CHO-K1, maximum cGMP production of Compound A set to 100% activation, read-out: % Act. (percent activation relative to Compound A); for EC50: CHO-K1/sGC cells, 1 hr at 37° C., 4P fit, presence or absence of DETA-NO not given, read-out: IP (nM) (inflection point). The method in brief:
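CHO-K1/sGC cells (4×10^5/mL) in EBSS with 5 mM MgCl2, 10 mM HEPES, 0.05% BSA and 0.5 mM IBMX, treated 1 hr at 37° C with compounds (2.5% DMSO) with or without 1 μM DETA-NO. cGMP measured by HTRF, expressed as % of a reference heme-dependent activator's maximum; inflection point and fold induction from 4P fit.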
A general note: In TR-FRET formats the signal depends on donor and acceptor labels being close together.

As for `CC1(c2ccc(F)cn2)C(=O)Nc2nc(-c3cn4ccnc4c(OCC4CC(F)(F)C4)n3)nc(N)c21` (stereo not drawn) [Example 33B, 4-amino-2-{8-[(3,3-difluoro-cyclobutyl)methoxy]imidazo [1,2-a]pyrazin-6-yl}-5-(5-fluoro-pyridin-2-yl)-5-methyl-5,7-dihydro-6H-pyrrolo[2,3-d] pyrimidin-6-one], the Emax is 112% and the EC50 stood at 1040 nM.
Take `CC1(c2ccc(F)cc2)C(=O)Nc2nc(-c3cn4cc(C(F)(F)F)nc4c(Oc4cccc(F)c4)n3)nc(N)c21` (stereo not drawn) [Example 35A, 4-Amino-2-(8-(3-fluorophenoxy)-2-(trifluoromethyl)imidazo[1,2-a]pyrazin-6-yl)-5-(4-fluorophenyl)-5-methyl-5H-pyrrolo[2,3-d]pyrimidin-6(7H)-one]: the Emax is 94% and the EC50 is 468 nM.
For `CC1(c2ccc(F)cc2)C(=O)Nc2nc(-c3cn4cc(C(F)(F)F)nc4c(Oc4ccccc4)n3)nc(N)c21` (stereo not drawn) [Example 36A, 4-amino-5-(4-fluorophenyl)-5-methyl-2-(8-phenoxy-2-(trifluoromethyl)imidazo[1,2-a]pyrazin-6-yl)-5H-pyrrolo[2,3-d] pyrimidin-6(7H)-one], the Emax came to 129% and the EC50 came to 1470 nM.
For `CC1(c2ccc(F)cc2)C(=O)Nc2nc(-c3cn4cc(C(F)(F)F)nc4c(Oc4cccc(F)c4F)n3)nc(N)c21` (stereo not drawn) [Example 37A, 4-amino-2-(8-(2,3-difluoro-phenoxy)-2-(trifluoromethyl)imidazo[1,2-a]pyrazin-6-yl)-5-(4-fluorophenyl)-5-methyl-5H-pyrrolo[2,3-d] pyrimidin-6(7H)-one] the same measures were 83% and 719 nM.
As for `CC1(c2ccc(F)cc2)C(=O)Nc2nc(-c3cn4cc(C5CC5)nc4c(Oc4cccc(F)c4)n3)nc(N)c21` (stereo not drawn) [Example 38A, 4-amino-2-[2-cyclopropyl-8-(3-fluorophenoxy)imidazo[1,2-a]pyrazin-6-yl]-5-(4-fluorophenyl)-5-methyl-5,7-dihydro-6H-pyrrolo[2,3-d] pyrimidin-6-one], the Emax is 92% and the EC50 was found to be 748 nM.
In the case of `CC1(c2ccc(F)cc2)C(=O)Nc2nc(-c3cn4ccnc4c(OCCC4CC4(F)F)n3)nc(N)c21` (stereo not drawn) [Example 41A, 4-amino-2-{8-[2-(2,2-difluoro-cyclopropyl)ethoxy]imidazo[1,2-a]pyrazin-6-yl}-5-(4-fluorophenyl)-5-methyl-5,7-dihydro-6H-pyrrolo[2,3-d] pyrimidin-6-one], the Emax came out at 94% and the EC50 came to 644 nM.
Taken in the same sequence, the figures for `CC1(c2ccc(F)cc2)C(=O)Nc2nc(-c3cn4ccnc4c(OCCC4CC(F)(F)C4)n3)nc(N)c21` (stereo not drawn) [Example 42A, 4-amino-2-{8-[2-(3,3-difluoro-cyclobutyl)ethoxy]imidazo[1,2-a]pyrazin-6-yl}-5-(4-fluorophenyl)-5-methyl-5,7-dihydro-6H-pyrrolo[2,3-d] pyrimidin-6-one] were 119% and 1350 nM.
`CC1(c2ccc(F)cc2)C(=O)Nc2nc(-c3cn4ccnc4c(OCC4CCCCC4)n3)nc(N)c21` (stereo not drawn) [Example 43A, 4-amino-2-[8-(cyclohexyl-methoxy)imidazo [1,2-a]pyrazin-6-yl]-5-(4-fluorophenyl)-5-methyl-5,7-dihydro-6H-pyrrolo[2,3-d] pyrimidin-6-one]: the Emax is 116% and the EC50 is 17 nM.
Regarding `CC1(c2ccc(F)cc2)C(=O)Nc2nc(-c3cn4ccnc4c(OCCC4CC4)n3)nc(N)c21` (stereo not drawn) [Example 44A, 4-amino-2-[8-(2-cyclopropyl-ethoxy)imidazo [1,2-a]pyrazin-6-yl]-5-(4-fluorophenyl)-5-methyl-5,7-dihydro-6H-pyrrolo[2,3-d] pyrimidin-6-one], the Emax worked out at 100% and the EC50 was 60 nM.
For `CC1(c2ccc(F)cc2)C(=O)Nc2nc(-c3cn4ccnc4c(OCC4CCCC4)n3)nc(N)c21` (stereo not drawn) [Example 45A, 4-amino-2-[8-(cyclopentyl-methoxy)imidazo [1,2-a]pyrazin-6-yl]-5-(4-fluoro-phenyl)-5-methyl-5,7-dihydro-6H-pyrrolo[2,3-d] pyrimidin-6-one] the same measures were 110% and 13 nM.
Taken in the same sequence, the figures for `CC1(c2ccc(F)cc2)C(=O)Nc2nc(-c3cn4ccnc4c(OC4CCCC4)n3)nc(N)c21` (stereo not drawn) [Example 46A, 4-amino-2-[8-(cyclopentyl-oxy)imidazo [1,2-a]pyrazin-6-yl]-5-(4-fluorophenyl)-5-methyl-5,7-dihydro-6H-pyrrolo[2,3-d] pyrimidin-6-one] were 108% and 912 nM.
As for `CC1(c2ccc(Cl)cc2)C(=O)Nc2nc(-c3cn4ccnc4c(OCc4ccccc4)n3)nc(N)c21` (stereo not drawn) [Example 48A, 4-amino-2-[8-(benzyloxy)imidazo[1,2-a]pyrazin-6-yl]-5-(4-chlorophenyl)-5-methyl-5,7-dihydro-6H-pyrrolo[2,3-d] pyrimidin-6-one], the Emax turned out to be 106% and the EC50 stood at 26 nM.
For `COCCNc1nc(-c2nc(N)c3c(n2)NC(=O)C3(C)c2ccc(F)cc2)cn2ccnc12` (stereo not drawn) [Example 52A, 4-amino-5-(4-fluorophenyl)-2-{8-[(2-methoxyethyl)amino]imidazo [1,2-a]pyrazin-6-yl}-5-methyl-5,7-dihydro-6H-pyrrolo[2,3-d] pyrimidin-6-one] the same measures were 101% and 244 nM.
With `CC1(c2ccc(F)cc2)C(=O)Nc2nc(-c3cn4ccnc4c(NCC4CC(F)(F)C4)n3)nc(N)c21` (stereo not drawn) [Example 53A, 4-amino-2-(8-{[(3,3-difluoro-cyclobutyl)methyl]amino}imidazo[1,2-a]pyrazin-6-yl)-5-(4-fluoro-phenyl)-5-methyl-5,7-dihydro-6H-pyrrolo[2,3-d] pyrimidin-6-one], the Emax was determined as 110% and the EC50 was 948 nM.
For `CCC1(CNc2nc(-c3nc(N)c4c(n3)NC(=O)C4(C)c3ccc(F)cc3)cn3ccnc23)CC1` (stereo not drawn) [Example 54A, 4-amino-2-(8-{[(1-ethyl-cyclopropyl)methyl]amino}imidazo[1,2-a]pyrazin-6-yl)-5-(4-fluoro-phenyl)-5-methyl-5,7-dihydro-6H-pyrrolo[2,3-d] pyrimidin-6-one], the Emax amounted to 98% and the EC50 came out at 266 nM.
For `CC1(c2ccc(F)cc2)C(=O)Nc2nc(-c3cn4ccnc4c(NCC4CCCCC4)n3)nc(N)c21` (stereo not drawn) [Example 55A, 4-amino-2-{8-[(cyclohexyl-methyl)amino]imidazo[1,2-a]pyrazin-6-yl}-5-(4-fluoro-phenyl)-5-methyl-5,7-dihydro-6H-pyrrolo[2,3-d] pyrimidin-6-one] the same measures were 92% and 35 nM.
Taken in the same sequence, the figures for `CC1(c2ccc(Cl)cc2)C(=O)Nc2nc(-c3cn4ccnc4c(NCC4CC4(C)C)n3)nc(N)c21` (stereo not drawn) [Example 56A, 4-amino-5-(4-chlorophenyl)-2-(8-{[(2,2-dimethylcyclo-propyl)methyl]amino}imidazo [1,2-a]pyrazin-6-yl)-5-methyl-5,7-dihydro-6H-pyrrolo [2,3-d]pyrimidin-6-one] were 110% and 51 nM.
For `CCC1(CNc2nc(-c3nc(N)c4c(n3)NC(=O)C4(C)c3ccc(Cl)cc3)cn3ccnc23)CC1` (stereo not drawn) [Example 57A, 4-amino-5-(4-chlorophenyl)-2-(8-{[(1-ethylcyclo-propyl)methyl]amino}imidazo [1,2-a]pyrazin-6-yl)-5-methyl-5,7-dihydro-6H-pyrrolo[2,3-d] pyrimidin-6-one] the same measures were 123% and 47 nM.
